We go through 21 compounds from patent US20170066717A1, “NEW PHENYLAZETIDINECARBOXYLATE OR -CARBOXAMIDE COMPOUNDS” (INVENTIVA, priority 2014, published 2017).

Series [1] concerns the target T1, NURR-1/RXRα (Homo sapiens, UniProt P19793).
T1 construct: expressed in transfected cells; host or cells: Cos-7 cells
As to the kind of experiment: Transactivation test, NURR-1-Gal4/RXRα, luciferase reporter in Cos-7 cells. The format is cell-based. Conditions: for Emax: COS-7, induction level relative to reference XCT0135908 at 2×10^−5 M (=100%), read-out: hNurr1_RXRaFL Emax (%); for pEC50: Cos-7 cells, NURR-1-Gal4/RXRα, luciferase reporter, read-out: hNurr1_RXRaFL EC50. For orientation: In a reporter assay the amount or activity of a reporter protein is the signal.

In series [2] the target is T2, NURR-1/RXRγ (Homo sapiens, UniProt P48443).
T2 construct: expressed in transfected cells; host or cells: Cos-7 cells
T2 sequence (P48443 whole entry): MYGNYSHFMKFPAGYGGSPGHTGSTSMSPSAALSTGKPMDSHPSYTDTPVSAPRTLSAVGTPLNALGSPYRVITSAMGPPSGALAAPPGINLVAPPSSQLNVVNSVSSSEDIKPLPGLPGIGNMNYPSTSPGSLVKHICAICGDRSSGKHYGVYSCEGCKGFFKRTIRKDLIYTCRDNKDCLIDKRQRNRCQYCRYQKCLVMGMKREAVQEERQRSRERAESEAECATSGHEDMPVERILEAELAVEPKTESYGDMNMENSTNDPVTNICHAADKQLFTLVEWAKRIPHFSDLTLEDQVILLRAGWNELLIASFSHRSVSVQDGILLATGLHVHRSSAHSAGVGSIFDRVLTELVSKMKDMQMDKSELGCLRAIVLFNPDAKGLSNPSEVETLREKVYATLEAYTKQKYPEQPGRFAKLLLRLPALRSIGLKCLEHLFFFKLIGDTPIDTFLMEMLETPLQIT
T2 sequence (P43354 whole entry partner): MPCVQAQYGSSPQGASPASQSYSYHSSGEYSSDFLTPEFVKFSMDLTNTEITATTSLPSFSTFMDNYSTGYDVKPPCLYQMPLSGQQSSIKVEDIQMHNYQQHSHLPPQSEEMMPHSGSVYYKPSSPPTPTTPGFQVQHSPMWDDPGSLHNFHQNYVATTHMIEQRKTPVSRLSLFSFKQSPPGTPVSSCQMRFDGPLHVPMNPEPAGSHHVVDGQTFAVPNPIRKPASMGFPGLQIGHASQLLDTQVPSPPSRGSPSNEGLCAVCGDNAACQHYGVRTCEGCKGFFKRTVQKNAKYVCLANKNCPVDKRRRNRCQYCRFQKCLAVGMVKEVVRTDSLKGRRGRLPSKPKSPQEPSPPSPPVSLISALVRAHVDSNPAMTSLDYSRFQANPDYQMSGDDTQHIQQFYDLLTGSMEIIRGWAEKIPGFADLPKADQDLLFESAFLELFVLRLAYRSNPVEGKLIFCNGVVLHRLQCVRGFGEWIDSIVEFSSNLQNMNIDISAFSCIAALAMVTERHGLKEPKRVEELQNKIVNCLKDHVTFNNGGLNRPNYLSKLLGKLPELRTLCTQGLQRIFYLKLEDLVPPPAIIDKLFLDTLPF
T2 sequence (P04386 1-147 partner limits assumed): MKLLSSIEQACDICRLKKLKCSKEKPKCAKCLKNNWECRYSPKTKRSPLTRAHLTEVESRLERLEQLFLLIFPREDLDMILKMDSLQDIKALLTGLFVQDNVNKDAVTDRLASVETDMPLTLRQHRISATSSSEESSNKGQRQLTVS
As to the kind of experiment: Transactivation test, NURR-1-Gal4/RXRγ, luciferase reporter in Cos-7 cells. It is filed as cell-based. The note with it: for Emax: COS-7, induction level relative to reference XCT0135908 at 2×10^−5 M (=100%), read-out: hNurr1_RXRgFL Emax (%).

pEC50: −log10 of the molar value. Counter-ions that a name gives are not always drawn.

In general, melting point refers to the temperature, or range, at which the solid turns liquid. Broadly, the Emax is the greatest response seen or fitted, relative to the assay's reference. As usually defined, the pEC50 is the negative decadic logarithm of the EC50, by convention in mol/L.

T1 sequence (P19793 whole entry): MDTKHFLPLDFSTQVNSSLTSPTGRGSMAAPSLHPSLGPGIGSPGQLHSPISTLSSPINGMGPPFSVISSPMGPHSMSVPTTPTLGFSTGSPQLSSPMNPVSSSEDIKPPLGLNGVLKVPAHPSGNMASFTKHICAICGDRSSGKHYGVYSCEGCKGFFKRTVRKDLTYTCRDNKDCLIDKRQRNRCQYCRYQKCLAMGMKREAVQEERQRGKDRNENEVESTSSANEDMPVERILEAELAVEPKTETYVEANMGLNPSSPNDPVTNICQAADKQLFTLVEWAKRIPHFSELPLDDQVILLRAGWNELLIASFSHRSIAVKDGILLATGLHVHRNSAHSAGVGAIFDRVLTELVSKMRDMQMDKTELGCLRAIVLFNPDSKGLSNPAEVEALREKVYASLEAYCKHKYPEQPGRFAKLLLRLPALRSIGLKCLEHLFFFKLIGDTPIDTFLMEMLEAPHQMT
T1 sequence (P43354 whole entry partner): as the sequence (P43354 whole entry partner) above
T1 sequence (P04386 1-147 partner limits assumed): as the sequence (P04386 1-147 partner limits assumed) above

Compound `CCc1cc2c(c(-c3cccc(N4CC(C(=O)O)C4)c3)c1)NCC(C)(C)O2` (as salt: ammonium) [Example 207, tert-butylammonium 1-[3-(7-ethyl-2,2-dimethyl-3,4-dihydro-1,4-benzoxazin-5-yl)phenyl]azetidine-3-carboxylate] gave a melting point of 100 to 124 °C.

Turning to `CN1CC2(CCC2)Oc2cc(C(C)(C)C)cc(-c3cccc(N4CC(C(=O)O)C4)c3)c21` (as salt: ammonium) [Example 213, tert-butylammonium 1-[3-(7-tert-butyl-4-methyl-spiro[3H-1,4-benzoxazine-2,1′-cyclobutane]-5-yl)phenyl]azetidine-3-carboxylate], the melting point lay within 170 to 178 °C.

Compound `CC1(C)CN(CC(F)(F)F)c2c(cc(C(F)(F)F)cc2-c2cccc(N3CC(C(=O)O)C3)c2)O1` (as salt: ammonium) [Example 215, tert-butylammonium 1-[3-[2,2-dimethyl-4 (2,2,2-trifluoromethyl)-7-(trifluoromethyl)-3H-1,4-benzoxazin-5-yl]phenyl]azetidine-3-carboxylate] yielded a melting point of 148 to 154 °C.

Compound `CC(C)Cc1ccc2c(c1)OC(C)(C)CN2c1cccc(N2CC(C(=O)O)C2)c1` (as salt: ammonium) [Example 231, tert-butylammonium 1-[3-(7-isobutyl-2,2-dimethyl-3H-1,4-benzoxazin-4yl)phenyl]azetidine-3-carboxylate] returned a melting point of 120 to 121 °C.

`CC(C)c1ccc2c(c1)CC(C)(C)CN2c1cccc(N2CC(C(=O)O)C2)c1` (as salt: ammonium) [Example 245, tert-butylammonium 1-[3-(6-isopropyl-3,3-dimethyl-2,4-dihydroquinolin-1-yl)phenyl]azetidine-3-carboxylate]: the melting point is 165 to 177 °C.

As to `CC1(C)Oc2cc(C#N)ccc2N(c2cccc(N3CC(C(=O)O)C3)c2)C1=O` (as salt: ammonium) [Example 254, tert-butylammonium 1-[3-(7-cyano-2,2-dimethyl-3-oxo-1,4-benzoxazin-4-yl)phenyl]azetidine-3-carboxylate], the melting point fell in the range of 204 to 211 °C.

The compound `O=C(O)C1CN(c2cccc(N3CC4(CCCC4)c4cc(Cl)ccc43)c2)C1` (as salt: ammonium) [Example 257, tert-butylammonium 1-[3-(5′-chlorospiro[cyclopentane-1,3′-indolin]-1′-yl)phenyl]azetidine-3-carboxyate] returned a melting point of 131 to 133 °C.

Turning to `CCC1(CC)C=C(c2cccc(N3CC(C(=O)O)C3)c2)c2ccc(C(F)(F)F)cc2O1` (as salt: ammonium) [Example 265], the melting point is 147 to 152 °C.

`CC1(C)CC(c2cccc(N3CC(C(=O)O)C3)c2)c2ccc(C(F)(F)F)cc2O1` (centres unmarked) (as salt: ammonium) [Example 270, tert-butylammonium 1-[3-[2,2-dimethyl-7-(trifluoromethyl)chroman-4-yl]phenyl]azetidine-3-carboxylate] registered a melting point of 116 to 122 °C.

Compound `CCCc1ccc(C(C)C)cc1-c1cccc(N2CC(C(=O)O)C2)c1` (as salt: salt) [Example 195, piperazin-1-ium-1-[3-(5-isopropyl-2-propylphenyl)phenyl]azetidine-3-carboxylate] had a melting point of 109 °C.

Take `CC1(C)CN(c2cccc(N3CC(C(=O)O)C3)c2)c2ccc(Br)cc2O1` (as salt: sodium) [Example 222, sodium 1-[3-(7-bromo-2,2-dimethyl-3H-1,4-benzoxazin-4-yl)phenyl]azetidine-3-carbxoylate]: the melting point is 140 °C.

Consider `O=C(O)C1CN(c2cccc(N3CCOc4cc(C(F)(F)F)ncc43)c2)C1` (as salt: sodium) [Example 240, sodium 1-[3-[7-(trifluoromethyl)-2,3-dihydropurido[4,3][1,4]oxazin-4-yl]phenyl]azetidine-3-carboxylate], for which the melting point was 49 to 63 °C.

`O=C(O)C1CN(c2cccc(-c3cc(C(F)(F)F)cc4c3NCCO4)c2)C1` [Example 65, 1-[3-[7-(trifluoromethyl)-3,4-dihydro-2H-1,4-benzoxazin-5-yl]phenyl]azetidine-3-carboxylic acid]: the melting point was in the range of 76 to 79 °C. Besides, in series [1], the Emax was determined as 99% and the pEC50 is 8.00.

`CN(C)C(=O)c1cn(-c2cccc(N3CC(C(=O)O)C3)c2)c2ccc(C(F)(F)F)cc12` [Example 131] registered a melting point of 230 to 234 °C. In series [1], the Emax was 55% and the pEC50 is 5.54.

`CCS(=O)(=O)c1cn(-c2cccc(N3CC(C(=O)O)C3)c2)c2ccc(C(F)(F)F)cc12` [Example 138, 1-[3-[3-(ethylsulfonyl)-5-(trifluoromethyl)indol-1-yl]phenyl]azetidine-3-carboxylic acid] registered a melting point of 161 to 168 °C. For the same compound, in series [1], the Emax was 116% and the pEC50 was 6.87.

Compound `CC(C)(C)c1cc2c(c(-c3cccc(N4CC(C(=O)[O-])C4)c3)c1)NCC1(CCC1)O2.[Na+]` [Example 205, sodium 1-[3-(7-tert-butylspiro[3,4-dihydro-1,4-benzoxazine-2,1′-cyclobutane]-5-yl)phenyl]azetidine-3-carboxylate] came in with a melting point of 190 to 200 °C. Moreover, in series [1], the Emax amounted to 115% and the pEC50 is 8.40.

The compound `CC(C)c1cc2c(c(-c3cccc(N4CC(C(=O)[O-])C4)c3)c1)NCC(C)(C)C2.[Na+]` [Example 208, sodium 1-[3-(6-isopropyl-3,3-dimethyl-2,4-dihydro-1H-quinoline-8-yl)phenyl]azetidine-3-carboxylate] had a melting point of 196 to 203 °C. For the same compound, in series [1], the Emax came to 109% and the pEC50 was 7.96.

`Cc1cc2c(c(-c3cccc(N4CC(C(=O)[O-])C4)c3)c1)NCCC(C)(C)O2.[Na+]` [Example 209, sodium 1-[3-(2,2,8-trimethyl4,5-dihydro-3H-1,5-benzoxazepin-6-yl)phenyl]azetidine-3-carboxylate] showed a melting point of 145 to 154 °C. In addition, in series [1], the Emax worked out at 95% and the pEC50 was 6.67.

`CC1(C)Oc2cc(C#N)ccc2N(c2cccc(N3CC(C(=O)O)C3)c2)C1=O` [Example 253, 1-[3-(7-cyano-2,2-dimethyl-3-oxo-1,4-benzoxazin-4-yl)phenyl]azetidine-3-carboxylic acid] registered a melting point of 88 to 104 °C.

On to `CC1(C)CN(c2cccc(N3CC(C(=O)NCCCO)C3)c2)c2ccc(C(F)(F)F)cc2O1` [Example 278, 1-[3-[2,2-dimethyl-7-(trifgluoromethyl)-3H-1,4-benzoxazin-4-yl]phenyl]-N-(3-hydroxypropyl)azetidine-3-carboxamide], for which the Emax turned out to be 117% in series [2] and 110% in series [1]. The pEC50 in series [2] (Cos-7 cells, NURR-1-Gal4/RXRγ, luciferase reporter, read-out: hNurr1_RXRgFL EC50) was 7.13; in series [1], 7.54.

On to `CN(C)CCNC(=O)C1CN(c2cccc(N3CC(C)(C)Oc4cc(C(F)(F)F)ccc43)c2)C1` [Example 279, N-3(2-dimethylaminoethyl)-1-[3-[2,2-dimethyl-7-(trifluoromethyl)-3H-1,4-benzoxazin-4-yl]phenyl]azetidine-3-carboxamide], for which the Emax in series [2] came to 79%. In addition, in series [1], the Emax is 95% and the pEC50 is 6.43.
